According to ChEMBL document CHEMBL1132845, “Synthesis and potent anticonvulsant activities of 4-oxo-imidazo[1,2-a]inden” (Bioorg Med Chem Lett, 2000):

Columns and labels:
[1] = species: Mus musculus; test: Compound was tested for the maximal electroshock effect in mice; type: functional
[2] = species: Mus musculus; test: Anticonvulsant activity in male CD1 mice; type: functional
[3] = tested on: Mus musculus; test: Effective dose in MES test in mouse after i.v. administration; type: functional; settings: iv
[4] = tested on: Mus musculus; test: Effective dose in MES test in mouse after s.c. administration; type: functional; settings: sc
[5] = tested on: Mus musculus; test: Effective dose in mouse after i.p. administration; type: functional; settings: ip
[6] = tested on: Mus musculus; test: Anticonvulsant activity against glutamic acid receptor complex after subcutaneous administration in CD1 mouse; type: functional; settings: sc
[7] = biological target: Glutamate NMDA receptor; test: Binding affinity for N-methyl-D-aspartate glutamate receptor; type: protein-complex assay, Rattus norvegicus
[8] = tested on: Rattus norvegicus; test: Effective dose in MES test in SD rat after s.c. administration; type: functional; settings: sc
[9] = tested on: Rattus norvegicus; test: Effective dose in MES test in SD rat after i.v. administration; type: functional; settings: iv
[10] = biological target: T1, Glutamate receptor ionotropic, AMPA (Rattus norvegicus, UniProt P19490+P19491+P19492+P19493); test: Binding affinity against Ionotropic glutamate receptor AMPA in rat brain
[11] = biological target: T1, Glutamate receptor ionotropic, AMPA
Description: Binding affinity for Ionotropic glutamate receptor AMPA

[12] = biological target: T1, Glutamate receptor ionotropic, AMPA; remark: listed apart in the source
Description: Antagonistic activity against Ionotropic glutamate receptor AMPA using kainate-evoked current in Xenopus oocytes injected with rat brain mRNA

[13] = tested on: Mus musculus; test: Effective dose in MES test in mouse after i.p. administration; settings: ip
[14] = tested on: Rattus norvegicus; test: Effective dose in MES test in SD rat after i.p. administration; settings: ip
[15] = tested on: Mus musculus; test: Anticonvulsant activity after subcutaneous administration in CD1 mouse
[16] = tested on: Mus musculus; test: Anticonvulsant activity against GABA receptor complex after intra peritoneal administration in CD1 mouse

Row | Structure (SMILES) | IC50 [7] [nM] | IC50 [11] [nM] | IC50 [12] [nM] | ED50 [2] [mg/kg] | also measured
1 | O=C(O)Cc1cccc2c1Cc1c-2nc(O)c2nc(C(=O)O)cn12 | 7200 | 18 | 5 | 1.2 | ED50 [1]: ≤ 2 mg/kg; ED50 [3]: 0.5 mg/kg; ED50 [4]: 1 mg/kg; ED50 [5]: 0.8 mg/kg; ED50 [6]: 1.5 mg/kg; ED50 [8]: 1 mg/kg; ED50 [9]: 0.4 mg/kg; IC50 [10]: 4 nM; ED50 [13]: 1.2 mg/kg; ED50 [14]: 4.8 mg/kg; ED50 [15]: ~16 mg/kg; ED50 [16]: 1.7 mg/kg
2 | Oc1nc2c(n3ccnc13)Cc1ccccc1-2 |  |  | 1800 | 62 | 
3 | O=C(O)c1cccc2c1Cc1c-2nc(O)c2nccn12 | 21000 | 3500 | 3250 |  | 
4 | O=C(O)Cc1ccc2c(c1)Cc1c-2nc(O)c2nccn12 | > 10000 | 10000 | 2640 |  | 
5 | O=C(O)c1ccc2c(c1)Cc1c-2nc(O)c2nccn12 | 10000 | 620 | 2010 | > 80 | 
6 | NS(=O)(=O)c1cccc2c1c([N+](=O)[O-])cc1nc(O)c(O)nc12 [NBQX] |  |  |  | 36 | 
7 | O=C(O)[C@@H]1C[C@H]2C[C@@H](CCc3nn[nH]n3)CC[C@H]2CN1 [TEZAMPANEL ANHYDROUS] |  |  | 230 | 4 | 
8 | O=c1[nH]c2cc(-n3ccnc3)c([N+](=O)[O-])cc2[nH]c1=O [YM-90K] |  |  | 260 | 12 | 

The remaining compounds from weak to strong by IC50 [12], led by results:

Row | IC50 [7] [nM] | IC50 [11] [nM] | IC50 [12] [nM] | Structure (SMILES) | ED50 [2] [mg/kg] | also measured
9 | > 10000 | 611 | 214 | O=C(O)Cc1ccc2c(c1)Cc1c-2nc(O)c2nc(C(=O)O)cn12 | 16 | 
10 | > 10000 | 89 | 104 | O=C(O)Cc1cccc2c1Cc1c-2nc(O)c2nccn12 | > 80 | 
11 | 4100 | 450 | 53 | CC(C(=O)O)c1cccc2c1Cc1c-2nc(O)c2nc(C(=O)O)cn12 (configuration not stated) | 19 | 
12 | 83 |  | 29 | O=C(O)c1cn2c3c(nc(O)c2n1)-c1ccccc1C3 | 50 | 
13 | 2100 | 4 | 23 | O=C(O)Cc1cn2c3c(nc(O)c2n1)-c1cccc(CC(=O)O)c1C3 | 2 | 
